# Test results from US8124793B2, “Derivatives of ethylene methanedisulfonate as cancer chemotherapeutic agents” (priority 2007, dated 2012).
# What was measured:
# Assay type in all cases: cell-based
# HCT-116 = assay: NCI screen, growth of human tumor cells: Colon Cancer HCT-116; conditions: HCT-116, 10^−4 molar
# Procedure, shortened: (§1)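 Percent-growth read-out from the NCI cancer cell screen; data annotated by cancer type and molar concentration, ≥60 points per compound.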
# SK-MEL-2 = assay: NCI screen, growth of human tumor cells: Melanoma SK-MEL-2
# Procedure, shortened: as §1
# MCF7/ADR-RES = assay: NCI screen, growth of human tumor cells: Breast Cancer MCF7/ADR-RES; conditions: MCF7/ADR-RES (Breast Cancer), 10^−4 molar
# Procedure, shortened: as §1
# SNB-19 = assay: NCI screen, growth of human tumor cells: CNS Cancer SNB-19
# Procedure, shortened: as §1
# U-251 = assay: NCI screen, growth of human tumor cells: CNS Cancer U-251
# Procedure, shortened: as §1
# SF-295 = assay: NCI screen, growth of human tumor cells: CNS Cancer SF-295; conditions: SF-295, 10^−4 molar
# Procedure, shortened: as §1
# NCI-H322M = assay: NCI screen, growth of human tumor cells: Non-Small Cell Lung NCI-H322M; conditions: NCI-H322M, 10^−4 molar
# Procedure, shortened: as §1
# NCI-H460 = assay: NCI screen, growth of human tumor cells: Non-Small Cell Lung NCI-H460
# Procedure, shortened: as §1
# MCF 7 = assay: NCI screen, growth of human tumor cells: Breast Cancer MCF 7; conditions: MCF7, 10^−4 molar
# Procedure, shortened: as §1
# MDA-MB-435 = assay: NCI screen, growth of human tumor cells: Breast Cancer MDA-MB-435; conditions: MDA-MB-435, 10^−4 molar
# Procedure, shortened: as §1
# SN12C = assay: NCI screen, growth of human tumor cells: Renal Cancer SN12C; conditions: SN12C, 10^−4 molar
# Procedure, shortened: as §1
# PC-3 = assay: NCI screen, growth of human tumor cells: Prostate Cancer PC-3
# Procedure, shortened: as §1
# OVCAR-3 = assay: NCI screen, growth of human tumor cells: Ovarian Cancer OVCAR-3; conditions: OVCAR-3, 10^−4 molar
# Procedure, shortened: as §1
# SR = assay: NCI screen, growth of human tumor cells: Leukemia SR; conditions: SR
# Procedure, shortened: as §1
# LOXIMVI = assay: NCI screen, growth of human tumor cells: Melanoma LOXIMVI; conditions: LOXIMVI
# Procedure, shortened: as §1
# SNB-75 = assay: NCI screen, growth of human tumor cells: CNS Cancer SNB-75
# Procedure, shortened: as §1
# HT29 = assay: NCI screen, growth of human tumor cells: Colon Cancer HT29; conditions: HT29 (Colon Cancer), 10^−4 molar
# Procedure, shortened: as §1
# K562 = assay: NCI screen, growth of human tumor cells: Leukemia K562; conditions: K562, 10^−4 molar
# Procedure, shortened: as §1
# CAKI-1 = assay: NCI screen, growth of human tumor cells: Renal Cancer CAKI-1; conditions: CAKI-1 (Renal Cancer), 10^−4 molar
# Procedure, shortened: as §1
# OVCAR-5 = assay: NCI screen, growth of human tumor cells: Ovarian Cancer OVCAR-5; conditions: OVCAR-5 (Ovarian Cancer), 10^−4 molar
# Procedure, shortened: as §1
# UACC-62 = assay: NCI screen, growth of human tumor cells: Melanoma UACC-62; conditions: UACC-62 (Melanoma), 10^−4 molar
# Procedure, shortened: as §1
# MDA-MB-231/ATCC = assay: NCI screen, growth of human tumor cells: Breast Cancer MDA-MB-231/ATCC; conditions: MDA-MB-231 (ATCC)
# Procedure, shortened: as §1
# COLO205 = assay: NCI screen, growth of human tumor cells: Colon Cancer COLO205
# Procedure, shortened: as §1
# RPMI-8226 = assay: NCI screen, growth of human tumor cells: Leukemia RPMI-8226; conditions: RPMI-8226 (Leukemia), 10^−4 molar
# Procedure, shortened: as §1
# ACHN = assay: NCI screen, growth of human tumor cells: Renal Cancer ACHN; conditions: ACHN, 10^−4 molar
# Procedure, shortened: as §1
# KM12 = assay: NCI screen, growth of human tumor cells: Colon Cancer KM12; conditions: KM12, 10^−4 molar
# Procedure, shortened: as §1
# OVCAR-4 = assay: NCI screen, growth of human tumor cells: Ovarian Cancer OVCAR-4; conditions: OVCAR-4, 10^−4 molar
# Procedure, shortened: as §1
# BT-549 = assay: NCI screen, growth of human tumor cells: Breast Cancer BT-549; conditions: BT-549, 10^−4 molar
# Procedure, shortened: as §1
# TK-10 = assay: NCI screen, growth of human tumor cells: Renal Cancer TK-10; conditions: TK-10 (Renal Cancer), 10^−4 molar
# Procedure, shortened: as §1
# EKVX = assay: NCI screen, growth of human tumor cells: Non-Small Cell Lung EKVX; conditions: EKVX, 10^−4 molar
# Procedure, shortened: as §1
# UACC-257 = assay: NCI screen, growth of human tumor cells: Melanoma UACC-257; conditions: UACC-257, 10^−4 molar
# Procedure, shortened: as §1
# SF-268 = assay: NCI screen, growth of human tumor cells: CNS Cancer SF-268
# Procedure, shortened: as §1
# SK-MEL-28 = assay: NCI screen, growth of human tumor cells: Melanoma SK-MEL-28
# Procedure, shortened: as §1
# OVCAR-8 = assay: NCI screen, growth of human tumor cells: Ovarian Cancer OVCAR-8; conditions: OVCAR-8, 10^−4 molar
# Procedure, shortened: as §1
# SK-MEL-5 = assay: NCI screen, growth of human tumor cells: Melanoma SK-MEL-5
# Procedure, shortened: as §1
smiles,measurement,setting,value
CC(=O)C1(CC2=C(C)C(=O)c3ccccc3C2=O)S(=O)(=O)OCCOS1(=O)=O [NSC 701690],% Growth,HCT-116,−100%
same,% Growth,"SK-MEL-2; SK-MEL-2, 10^−4 molar",−73%
same,% Growth,"SK-MEL-2; SK-MEL-2, 10^−5 molar",7%
same,% Growth,"SK-MEL-2; SK-MEL-2, 10^−6 molar",−2%
same,% Growth,"SK-MEL-2; SK-MEL-2, 10^−7 molar",−8%
same,% Growth,"SK-MEL-2; SK-MEL-2, 10^−8 molar",−3%
same,percent of growth of human tumor cells,MCF7/ADR-RES,−40%
same,% Growth,"SNB-19; SNB-19, 10^−4 molar",−47%
same,% Growth,"SNB-19; SNB-19, 10^−5 molar",53%
same,% Growth,"U-251; U251, 10^−4 molar",−100%
same,% Growth,"U-251; U251, 10^−5 molar",42%
same,% Growth,"U-251; U251, 10^−6 molar",53%
same,% Growth,"U-251; U251, 10^−7 molar",46%
same,% Growth,"U-251; U251, 10^−8 molar",62%
same,% Growth,SF-295,−100%
same,% Growth,NCI-H322M,−100%
same,% Growth,"NCI-H460; NCI-H460, 10^−4 molar",−100%
same,% Growth,"NCI-H460; NCI-H460, 10^−5 molar",42%
same,% Growth,MCF 7,−100%
same,% Growth,MDA-MB-435,−95%
same,% Growth,SN12C,−100%
same,% Growth,"PC-3; PC-3, 10^−4 molar",−38%
same,% Growth,"PC-3; PC-3, 10^−5 molar",52%
same,% Growth,"PC-3; PC-3, 10^−6 molar",59%
same,% Growth,"PC-3; PC-3, 10^−7 molar",28%
same,% Growth,"PC-3; PC-3, 10^−8 molar",28%
same,% Growth,OVCAR-3,−73%
same,% Growth,SR; 10^−4 molar,−100%
same,% Growth,SR; 10^−5 molar,−8%
same,% Growth,SR; 10^−6 molar,19%
same,% Growth,LOXIMVI; 10^−4 molar,−100%
same,% Growth,LOXIMVI; 10^−5 molar,36%
same,% Growth,"SNB-75; SNB-75, 10^−4 molar",−100%
same,% Growth,"SNB-75; SNB-75, 10^−5 molar",45%
same,percent of growth of human tumor cells,HT29,−25%
same,% Growth,K562,−66%
same,percent of growth of human tumor cells,CAKI-1,−53%
same,percent of growth of human tumor cells,OVCAR-5,−53%
same,percent of growth of human tumor cells,UACC-62,−57%
same,% Growth,MDA-MB-231/ATCC; 10^−4 molar,−41%
same,% Growth,MDA-MB-231/ATCC; 10^−5 molar,39%
same,% Growth,MDA-MB-231/ATCC; 10^−6 molar,56%
same,% Growth,MDA-MB-231/ATCC; 10^−7 molar,58%
same,% Growth,MDA-MB-231/ATCC; 10^−8 molar,45%
same,% Growth,"COLO205; COLO205, 10^−4 molar",−100%
same,% Growth,"COLO205; COLO205, 10^−5 molar",60%
same,% Growth,"COLO205; COLO205, 10^−6 molar",58%
same,percent of growth of human tumor cells,RPMI-8226,−18%
same,% Growth,ACHN,−77%
same,% Growth,KM12,−71%
same,% Growth,OVCAR-4,−100%
same,% Growth,BT-549,−100%
same,percent of growth of human tumor cells,TK-10,−8%
same,% Growth,EKVX,−91%
same,% Growth,UACC-257,−83%
same,% Growth,"SF-268; SF-268, 10^−4 molar",−100%
same,% Growth,"SF-268; SF-268, 10^−5 molar",40%
same,% Growth,"SF-268; SF-268, 10^−6 molar",65%
same,% Growth,"SK-MEL-28; SK-MEL-28, 10^−4 molar",−100%
same,% Growth,"SK-MEL-28; SK-MEL-28, 10^−5 molar",58%
same,% Growth,OVCAR-8,−100%
same,% Growth,"SK-MEL-5; SK-MEL-5, 10^−4 molar",−100%
same,% Growth,"SK-MEL-5; SK-MEL-5, 10^−5 molar",58%
